Data as given in patent US20250326744A1, “PIPERAZINE DERIVATIVE OR SALT THEREOF, AND PHARMACEUTICAL COMPOSITION” (priority 2022, published 2025).
Structures can show the parent of a compound that is named as a salt.

How the values were obtained:
[1] = tested on: mexB (PA) strain; test: Combinational effect with antibacterial agent against Pseudomonas aeruginosa (Test Examples 2 and 4): mexB (PA) strain with LVFX, TC or AZT at 1/4 MIC, EC99; format: cell-based; conditions: for EC99, combinational effect with AZT, mexB (PA) / EC99, combinational effect with LVFX, mexB (PA) / EC99, combinational effect with TC, mexB (PA): mexB (PA) strain, Test Example 4; for EC99, combinational effect with AZT, mexB (PA) / EC99, mexB (PA), AZT: combined with AZT at 1/4 MIC; for EC99, combinational effect with LVFX, mexB (PA) / EC99, mexB (PA), LVFX: combined with LVFX at 1/4 MIC; for EC99, combinational effect with TC, mexB (PA) / EC99, mexB (PA), TC: combined with TC at 1/4 MIC; for EC99, mexB (PA), AZT / EC99, mexB (PA), LVFX / EC99, mexB (PA), TC: Table 52, Test Example 2, 16 to 20 hours culture, OD595
Method in brief: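 EC99 denotes the minimum test-compound concentration (range 0–800 μM) that suppresses ≥99% of growth, measured by OD595, when combined with ¼ MIC levofloxacin (LVFX), tetracycline or aztreonam. The efflux-pump mutant mexB (PA), expressing mainly MexAB-OprM, was inoculated at 10^4–5 CFU/well in CAMHB for 16–20 h.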

[2] = tested on: S-3769 strain; test: Combinational effect with antibacterial agent against Pseudomonas aeruginosa (Test Examples 2 and 4): S-3769 strain with AMK or GM at 1/4 MIC, EC99; format: cell-based; conditions: for EC99, combinational effect with AMK, S-3769 strain / EC99, S-3769 strain, AMK: combined with AMK at 1/4 MIC; for EC99, combinational effect with AMK, S-3769 strain / EC99, combinational effect with GM, S-3769 strain: Test Example 4; for EC99, combinational effect with GM, S-3769 strain / EC99, S-3769 strain, GM: combined with GM at 1/4 MIC; for EC99, S-3769 strain, AMK / EC99, S-3769 strain, GM: Table 52, Test Example 2, 16 to 20 hours culture, OD595
Method in brief: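 EC99, the lowest test-compound concentration inhibiting growth by ≥99% (OD595), was measured with aminoglycoside AMK or GM held at ¼ MIC. Strain S-3769, a MexY-overexpressing clinical isolate, was cultured in CAMHB at 10^4 to 5 CFU/well for 16–20 h; compound range 0–800 μM.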

| Structure (SMILES) | EC99, combinational effect with AZT, mexB (PA) [1] | EC99, combinational effect with LVFX, mexB (PA) [1] | EC99, combinational effect with TC, mexB (PA) [1] | EC99, combinational effect with AMK, S-3769 strain [2] | EC99, combinational effect with GM, S-3769 strain [2] | EC99, mexB (PA), AZT [1] | EC99, mexB (PA), LVFX [1] | EC99, mexB (PA), TC [1] | EC99, S-3769 strain, AMK [2] | EC99, S-3769 strain, GM [2] |
| --- | --- | --- | --- | --- | --- | --- | --- | --- | --- | --- |
| N[C@@H](C(=O)N1CCN(Cc2ccccc2B(O)O)CC1)C1CCN(CCc2cc(Cl)ccc2-c2ccccc2)CC1 [Example 521, Hydrobromide of (R)-(2-((4-(2-amino-2-(1-(2-(4-chloro-[1,1-biphenyl]-2-yl)ethyl)piperidin-4-yl)acetyl)piperazin-1-yl)methyl)phenyl)boronic acid] | C (100 μM<EC99) | C (100 μM<EC99) | C (100 μM<EC99) | B (25 μM<EC99≤100 μM) | B (25 μM<EC99≤100 μM) | – | – | – | – | – |
| CSc1ccccc1CN1CCN(C(=O)[C@H](N)C2CCN(CCc3cc(Cl)ccc3C3=CCCNC3)CC2)CC1 [Example 553, Hydrobromide of (R)-2-amino-2-(1-(5-chloro-2-(1,2,5,6-tetrahydropyridin-3-yl)phenethyl)piperidin-4-yl)-1-(4-(2-(methylthio)benzyl)piperazin-1-yl)ethan-1-one] | A (12.5 μM<EC99≤25 μM) | S (EC99≤12.5 μM) | S (EC99≤12.5 μM) | S (EC99≤12.5 μM) | S (EC99≤12.5 μM) | – | – | – | – | – |
| CSc1ccc(F)cc1CN1CCN(C(=O)[C@H](N)C2CCN(CCc3cc(Cl)ccc3-c3ccccc3)CC2)CC1 [Example 530, Hydrobromide of (R)-2-amino-2-(1-(2-(4-chloro-[1,1-biphenyl]-2-yl)ethyl)piperidin-4-yl)-1-(4-(5-fluoro-2-(methylthio)benzyl)piperazin-1-yl)ethan-1-one] | B (25 μM<EC99≤100 μM) | S (EC99≤12.5 μM) | S (EC99≤12.5 μM) | S (EC99≤12.5 μM) | A (12.5 μM<EC99≤25 μM) | – | – | – | – | – |
| N[C@@H](C(=O)N1CCN(Cc2ccccc2C(F)(F)F)CC1)C1CCN(CCc2cc(Cl)ccc2-c2ccccc2)CC1 [Example 510, Hydrobromide of (R)-2-amino-2-(1-(2-(4-chloro-[1,1-biphenyl]-2-yl)ethyl)piperidin-4-yl)-1-(4-(2-(trifluoromethyl)benzyl)piperazin-1-yl)ethan-1-one] | B (25 μM<EC99≤100 μM) | B (25 μM<EC99≤100 μM) | A (12.5 μM<EC99≤25 μM) | A (12.5 μM<EC99≤25 μM) | B (25 μM<EC99≤100 μM) | – | – | – | – | – |
| CCSc1cc(F)ccc1CN1CCN(C(=O)[C@H](N)C2CCN(CCc3cc(Cl)ccc3-c3cc(O)ccc3Cl)CC2)CC1 [Example 619, (R)-2-amino-2-(1-(2-(2′,4-dichloro-5′-hydroxy-[1,1′-biphenyl]-2-yl)ethyl)piperidin-4-yl)-1-(4-(2-(ethylthio)-4-fluorobenzyl)piperazin-1-yl)ethan-1-one] | S (EC99≤12.5 μM) | S (EC99≤12.5 μM) | S (EC99≤12.5 μM) | S (EC99≤12.5 μM) | S (EC99≤12.5 μM) | – | – | – | – | – |
| CCOc1ccncc1CN1CCN(C(=O)[C@H](N)C2CCN(CCc3cc(Cl)ccc3-c3ccccc3)CC2)CC1 [Example 512, Hydrobromide of (R)-2-amino-2-(1-(2-(4-chloro-[1,1-biphenyl]-2-yl)ethyl)piperidin-4-yl)-1-(4-((4-ethoxypyridin-3-yl)methyl)piperazin-1-yl)ethan-1-one] | B (25 μM<EC99≤100 μM) | B (25 μM<EC99≤100 μM) | B (25 μM<EC99≤100 μM) | A (12.5 μM<EC99≤25 μM) | A (12.5 μM<EC99≤25 μM) | – | – | – | – | – |
| CCOc1cccc(F)c1CN1CCN(C(=O)[C@H](N)C2CCN(CCc3cc(OC)ccc3-c3ccccc3)CC2)CC1 [Example 51, Hydrobromide of (R)-2-amino-1-(4-(2-ethoxy-6-fluorobenzyl)piperazin-1-yl)-2-(1-(2-(4-methoxy-[1,1′-biphenyl]-2-yl)ethyl)piperidin-4-yl)ethan-1-one] | – | – | – | – | – | B (25 μM<EC99≤100 μM) | B (25 μM<EC99≤100 μM) | B (25 μM<EC99≤100 μM) | A (12.5 μM<EC99≤25 μM) | S (EC99≤12.5 μM) |
| CCOc1cccc(F)c1CN1CCN(C(=O)[C@H](N)C2CCN(CCc3cc(Cl)ccc3-c3cccc(S(F)(F)(F)(F)F)c3)CC2)CC1 [Example 57, Hydrobromide of (R)-2-amino-2-(1-(2-(4-chloro-3′-(pentafluoro-λ6-sulfanyl)-[1,1′-biphenyl]-2-yl)ethyl)piperidin-4-yl)-1-(4-(2-ethoxy-6-fluorobenzyl)piperazin-1-yl) ethan-1-one] | – | – | – | – | – | C (100 μM<EC99) | C (100 μM<EC99) | B (25 μM<EC99≤100 μM) | B (25 μM<EC99≤100 μM) | B (25 μM<EC99≤100 μM) |
| N[C@@H](C(=O)N1CCN(Cc2cccc3c2CCCO3)CC1)C1CCN(CCc2cc(Cl)ccc2-c2ccccc2)CC1 [Example 515, Hydrobromide of (R)-2-amino-2-(1-(2-(4-chloro-[1,1-biphenyl]-2-yl)ethyl)piperidin-4-yl)-1-(4-(chroman-5-ylmethyl)piperazin-1-yl)ethan-1-one] | B (25 μM<EC99≤100 μM) | B (25 μM<EC99≤100 μM) | A (12.5 μM<EC99≤25 μM) | B (25 μM<EC99≤100 μM) | B (25 μM<EC99≤100 μM) | – | – | – | – | – |
| CCOc1cccc(F)c1CN1CCN(C(=O)[C@H](N)C2CCC(N(C)Cc3ccccc3)CC2)CC1 (stereo partly drawn) [Example 570, Hydrobromide of (R)-2-amino-2-(4-(benzyl(methyl)amino)cyclohexyl)-1-(4-(2-ethoxy-6-fluorobenzyl)piperazin-1-yl)ethan-1-one] | C (100 μM<EC99) | C (100 μM<EC99) | C (100 μM<EC99) | B (25 μM<EC99≤100 μM) | B (25 μM<EC99≤100 μM) | – | – | – | – | – |
| CCOc1cccc(F)c1CN1CCN(C(=O)[C@H](N)C2CCN(CCc3cc(OC(F)(F)F)ccc3-c3ccccc3Cl)CC2)CC1 [Example 86, Hydrobromide of (R)-2-amino-2-(1-(2-(2′-chloro-4-(trifluoromethoxy)-[1,1′-biphenyl]-2-yl)ethyl)piperidin-4-yl)-1-(4-(2-ethoxy-6-fluorobenzyl)piperazin-1-yl)ethan-1-one] | – | – | – | – | – | B (25 μM<EC99≤100 μM) | B (25 μM<EC99≤100 μM) | B (25 μM<EC99≤100 μM) | B (25 μM<EC99≤100 μM) | B (25 μM<EC99≤100 μM) |
| CCOc1ccc(F)c(F)c1CN1CCN(C(=O)[C@H](N)C2CCN(CCc3cc(Cl)ccc3-c3ccccc3)CC2)CC1 [Example 35, Hydrobromide of (R)-2-amino-2-(1-(2-(4-chloro-[1,1′-biphenyl]-2-yl)ethyl)piperidin-4-yl)-1-(4-(6-ethoxy-2,3-difluorobenzyl)piperazin-1-yl)ethan-1-one] | – | – | – | – | – | B (25 μM<EC99≤100 μM) | C (100 μM<EC99) | B (25 μM<EC99≤100 μM) | S (EC99≤12.5 μM) | S (EC99≤12.5 μM) |
| CCOc1ncccc1CN1CCN(C(=O)[C@H](N)C2CCN(CCc3cc(Cl)ccc3-c3ccccc3)CC2)CC1 [Example 511, Hydrobromide of (R)-2-amino-2-(1-(2-(4-chloro-[1,1-biphenyl]-2-yl)ethyl)piperidin-4-yl)-1-(4-((2-ethoxypyridin-3-yl)methyl)piperazin-1-yl)ethan-1-one] | B (25 μM<EC99≤100 μM) | C (100 μM<EC99) | B (25 μM<EC99≤100 μM) | B (25 μM<EC99≤100 μM) | A (12.5 μM<EC99≤25 μM) | – | – | – | – | – |
| CCOc1cccc(F)c1CN1CCN(C(=O)[C@H](N)C2CCN(CCc3cc(Cl)ccc3C3CC3)CC2)CC1 [Example 78, Hydrobromide of (R)-2-amino-2-(1-(5-chloro-2-cyclopropylphenethyl)piperidin-4-yl)-1-(4-(2-ethoxy-6-fluorobenzyl)piperazin-1-yl)ethan-1-one] | – | – | – | – | – | B (25 μM<EC99≤100 μM) | C (100 μM<EC99) | B (25 μM<EC99≤100 μM) | S (EC99≤12.5 μM) | S (EC99≤12.5 μM) |
